Test results taken from US12414932B2, “Arsinothricin and methods of treating infections using arsinothricin” (priority 2018, dated 2025).
Read-outs that look alike come from different tables or passages of the source.

Key:
E. coli AW3110 = assay: microbe, parasite or virus in culture; type: cell-based, Escherichia coli; conditions: for IC50: read-out: concentration giving 50% inhibition
P. putida Aars1,2 = assay: microbe, parasite or virus in culture; type: cell-based, Pseudomonas putida; conditions: for IC50: read-out: concentration giving 50% inhibition
[1] = target: phosphinothricin N-acetyltransferase (SvPAT) (Streptomyces viridochromogenes, UniProt Q57146); assay: N-acetyltransferase assay (DTNB) with SvPAT; type: biochemical, Streptomyces viridochromeogenes; conditions: as substrate of PAT (SvPAT)
PpArsN1 = PpArsN1 (Pseudomonas putida, UniProt Q88LK7); conditions: for PpArsN1 Specific activity: Substrate 50 μM, 37° C.
[2] = target: glutamine synthetase (GS) from E. coli (Escherichia coli, UniProt P0A9C5); assay: biochemical
Mycobacterium bovis BCG = type: cell-based

PpArsN1, sequence (Q88LK7 1-186): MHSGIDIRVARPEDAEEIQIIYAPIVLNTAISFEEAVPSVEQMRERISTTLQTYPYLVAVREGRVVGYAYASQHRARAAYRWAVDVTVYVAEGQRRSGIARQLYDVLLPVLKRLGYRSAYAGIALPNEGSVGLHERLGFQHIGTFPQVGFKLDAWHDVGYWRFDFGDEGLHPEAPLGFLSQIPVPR
phosphinothricin N-acetyltransferase (SvPAT), sequence (Q57146 whole entry, looked up): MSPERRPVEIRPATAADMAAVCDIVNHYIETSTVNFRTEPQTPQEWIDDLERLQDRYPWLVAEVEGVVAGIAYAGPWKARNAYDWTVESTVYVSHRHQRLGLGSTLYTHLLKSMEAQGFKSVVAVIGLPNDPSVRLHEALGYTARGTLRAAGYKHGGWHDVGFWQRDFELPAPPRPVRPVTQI
glutamine synthetase (GS) from E. coli, sequence (P0A9C5 2-469): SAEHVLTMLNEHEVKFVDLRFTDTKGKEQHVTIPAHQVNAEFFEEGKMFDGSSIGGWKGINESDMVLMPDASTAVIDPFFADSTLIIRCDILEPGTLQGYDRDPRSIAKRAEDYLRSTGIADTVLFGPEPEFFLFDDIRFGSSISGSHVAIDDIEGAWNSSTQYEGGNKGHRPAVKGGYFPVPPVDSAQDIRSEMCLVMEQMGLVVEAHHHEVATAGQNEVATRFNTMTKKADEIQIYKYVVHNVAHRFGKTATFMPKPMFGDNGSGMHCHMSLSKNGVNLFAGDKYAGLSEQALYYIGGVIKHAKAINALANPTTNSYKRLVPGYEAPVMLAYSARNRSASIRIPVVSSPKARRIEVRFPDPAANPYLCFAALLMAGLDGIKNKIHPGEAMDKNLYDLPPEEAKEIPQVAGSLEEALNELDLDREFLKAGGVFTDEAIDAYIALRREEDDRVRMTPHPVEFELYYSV

Compound | IC50 (E. coli AW3110; Escherichia coli, AW3110, 24 h) [nM] | IC50 (P. putida Aars1,2; Pseudomonas putida, 24 h) [nM] | Kcat [1] [s⁻¹] | PpArsN1 Specific activity (PpArsN1) [nmol/s/mg] | Ki [2] [nM] | concentration giving nearly complete inhibition (E. coli AW3110) [µM] | effectiveness as an antibiotic compared with PT (E. coli AW3110) | toxicity (growth inhibition) compared with As(III) and MAs(III) (E. coli AW3110) | IC50 (E. coli AW3110) [nM] | concentration giving nearly complete inhibition (P. putida Aars1,2) [µM] | effectiveness as an antibiotic compared with PT (P. putida Aars1,2) | IC50 (P. putida Aars1,2) [nM] | inhibitory effect on mycobacterial growth (Mycobacterium bovis BCG) | Km [1] [µM] | cytotoxicity in human monocytes (THP-1 cells) | affinity of PpArsN1 compared with PT (PpArsN1) [fold] | Kcat (PpArsN1; as substrate of PpArsN1) [s⁻¹] | Km (PpArsN1; as substrate of PpArsN1) [µM] | substrate quality for PpArsN1 (PpArsN1)
CP(=O)(O)CCC(N)C(=O)O (racemic) [PT, phosphinothricin, reference compound] | 100000 | 100000 | 3.1 ± 0.0 | 13.9 ± 1.9 | 400 ± 150 | – | – | – | – | – | – | – | – | – | – | – | – | – | –
C[As](=O)(O)CC[C@H](N)C(=O)O [AST, 2-amino-4-(hydroxymethylarsinoyl) butanoate] | – | – | 2.3 ± 0.1 | 49.6 ± 0.8 | – | 20 | approximately 30 fold | considerably more inhibitory than inorganic As (III) and is similar to that of highly toxic trivalent methylarsenite (MAs(III)) | ~3000 | 20 | approximately 30 fold | ~3000 | comparable with MSO and much higher than PT | 12 ± 2 | benign and much less toxic compared to inorganic arsenite | 100 | 1.7 ± 0.2 | 11 ± 3 | –
methionine sulfoximine [MSO, reference compound] | – | – | – | 2.1 ± 0.1 | – | – | – | – | – | – | – | – | – | – | – | – | – | – | poor substrate
